Results from patent US20120204273A1, “COMPOSITIONS RELATING TO A PHOSPHOPROTEIN AND METHODS OF USE” (SANFORD-BURNHAM MEDICAL RESEARCH INSTITUTE, priority 2010, published 2012).
Where a chain is given by its changes, count along the chain named. Names and notes keep the numbering of the source.

B1: HA-CDP138-5DA: HA-tagged CDP138 with D19A, D26A, D76A, D78A, D84A (protein, UniProt Q86YS7 1-1000, looked up, variant D19A D26A D76A D78A D84A)
C2 domain-containing protein 5: MPGKLKVKIVAGRHLPVMARASDLTAAFVEVKFGNTTFKTDVYLKSLNPQWNSEWFKFEVDDEDLQDEPLQITVLAHATYSANAAIGKVYIDIDPLLYSEAATVISGWFPIYDTIHGIRGEINVVVKVDLFNDLNRFRQSSCGVKFFCTTSIPKCYRAVIIHGFVEELVVNEDPEYQWIDRIRTPRASNEARQRLISLMSGELQRKIGLKVLEMRGNAVVGYLQCFDLEGESGLVVRAIGTACTLDKLSSPAAFLPACNSPSKEMKEIPFNEDPNPNTHSSGPSTPLKNQTYSFSPSKSYSRQSSSSDTDLSLTPKTGMGSGSAGKEGGPFKALLRQQTQSALEQREFPFFTLTAFPPGFLVHVGGVVSARSVKLLDRIHNPDEPETRDAWWAEIRQEIKSHAKALGCHAVVGYSESTSICEEVCILSASGTAAVLNPRFLQDGTVEGCLEQRLEENLPTRCGFCHIPYDELNMPFPAHLTYCYNCRKQKVPDVLFTTIDLPTDATVIGKGCLIQARLCRLKKKAQAEANATAISNLLPFMEYEVHTQLMNKLKLKGMNALFGLRIQITVGENMLMGLASATGVYLAALPTPGGIQIAGKTPNDGSYEQHISHMQKKINDTIAKNKELYEINPPEISEEIIGSPIPEPRQRSRLLRSQSESSDEVTELDLSHGKKDAFVLEIDDTDAMEDVHSLLTDVPPPSGFYSCNTEIMPGINNWTSEIQMFTSVRVIRLSSLNLTNQALNKNFNDLCENLLKSLYFKLRSMIPCCLCHVNFTVSLPEDELIQVTVTAVAITFDKNQALQTTKTPVEKSLQRASTDNEELLQFPLELCSDSLPSHPFPPAKAMTVEKASPVGDGNFRNRSAPPCANSTVGVVKMTPLSFIPGAKITKYLGIINMFFIRETTSLREEGGVSGFLHAFIAEVFAMVRAHVAALGGNAVVSYIMKQCVFMENPNKNQAQCLINVSGDAVVFVRESDLEVVSSQQPTTNCQSSCTEGEVTT
modifications: HA tag
notes: HA-tagged CDP138 with D19A, D26A, D76A, D78A, D84A
B2: HA-CDP138-S197A: HA-tagged CDP138 mutant lacking the Akt2 phosphorylation site Ser197 (protein, UniProt Q86YS7 1-1000, looked up, variant S197A)
C2 domain-containing protein 5: B1 C2 domain-containing protein 5 with A19D, A26D, A76D, A78D, A84D, S197A
modifications: HA tag
notes: HA-tagged CDP138 mutant lacking the Akt2 phosphorylation site Ser197

Assays:
3T3-L1 adipocytes [1] = assay: GSV-PM fusion in live adipocytes (IRAP-pHluorin, TIRF microscopy); assay type: cell-based, mouse; details: Akti1/2 5 μM for 1 h, insulin 100 nM 30 min
Description: FIG. 3, panels A-C, show knockdown of CDP138 in live 3T3-L1 adipocytes inhibits insulin-stimulated membrane fusion between GLUT4 storage vesicles (GSV) and the PM, but not GLUT4-EGFP trafficking to the TIRF zone. (A): Schematic illustration of the molecular probes and TIRF microcopy-based live cell assays for GLUT4 trafficking and GSV-PM fusion. (B) and (C): The effect of CDP138 knockdown on insulin-stimulated IRAP-pHluorin insertion into the PM (B), and accumulation of GLUT4-EGFP in the TIRF zone (C). Adipocytes (day 4) were transfected by electroporation with plasmid DNA encoding IRAP-pHluorin or GLUT4-EGFP, together with either the scrambled siRNA or smartPool siRNA against mouse 5730419I09Rik. Cells were reseeded on glass-bottomed dishes for 72 hrs, serum starved for 2 hr then stimulated with 100 nM insulin for 30 min. Analyses were performed in a cell warmer adapted for a Nikon TiE with fully motorized combined dual laser (488 and 561 nm). Images were acquired every 3 min immediately after addition of insulin and analyzed as described in the Supplementary Experimental Procedures. Perfect focus system and multiple points capture program (NIS Element) were used to acquire images from multiple positively transfected cells at each time point. […]
Total Internal Reflection Fluorescence (TIRF) Microscopy: Nikon (Melville, N.Y.) TI-TIRF-E, which was based on the objective lens method, was used to perform all the TIRF experiments. […] Positively transfected adipocytes were identified, and the insulin-stimulated IRAP vesicle-PM fusion events or GLUT4-EGFP trafficking to the TIRF zone were recorded every 3 min for a 30 min period using Nikon Eclipse-Ti TIRF microscope. […]
(§1) Image Analysis and Quantification: TIRF and wide field fluorescence microscopy were performed using a Nikon inverted microscope (Melville, N.Y.) with a cooled charge-coupled device camera. […]

3T3-L1 adipocytes [2] = assay: myc-GLUT4-GFP translocation to the cell surface; assay type: cell-based, mouse; details: for effect on insulin-stimulated myc-GLUT4-GFP translocation to cell surface: fixed cells, Akti1/2 50 μM for 1 hr, insulin 100 nM 30 min; for effect of overexpression on insulin-stimulated myc-GLUT4-GFP translocation (TIRF myc / Epi GFP): insulin 100 nM, 30 min
Method: FIG. 2, panels A-C show knockdown of CDP138 in 3T3-L1 adipocytes inhibits insulin-stimulated glucose transport (A) and myc-GLUT4-GFP translocation (B), but not endogenous GLUT4 movement to the periphery detected in TIRF zone (C). (A): Differentiated adipocytes at day 5 were transfected with siRNAs against mouse 5730419I09Rik or the scrambled siRNA (Scr) as described earlier (Jiang et al., 2003) for 60 hrs, then serum starved overnight. Cells were then treated with or without insulin (1 nM and 100 nM) for 30 min for the glucose uptake assay, or 15 min for immunoblotting of CDP138, pAkt, Akt and β-actin. Glucose transport data are presented as mean±SD of 4 independent experiments. *P<0.05 vs Scr Insulin (1 nM) group; **P<0.01 vs Scr Insulin (100 nM) group. (B): Day 5 adipocytes were transfected with siRNAs and myc-GLUT4-GFP for 60 hrs and then serum starved overnight. Cells were then treated with insulin (1 nM) for 20 min. Cell surface Myc-GLUT4-GFP was detected with anti-myc monoclonal Ab (9E10) and Alexa Fluor 568-labeled goat anti-mouse IgG in non-permeablized cells. The Myc signal and GFP signal were quantified as previously described (Jiang et al., 2002). Data presented are representative microscopic images and mean±SD of about 160 GFP-positive cells in each group from three independent experiments. **P<0.01 vs Scr Insulin (1 nM) group. […] GLUT4 was detected with a goat anti-GLUT4 Ab and Alexa Fluor 488-conjugated donkey anti-goat Ab in permeabilized cells. Top and middle panels show 100 nm TIRF zone and representative GLUT4 TIRFM images, respectively. Data are mean±SD of 3 independent experiments. **P<0.01 vs Scr Insulin groups.
GLUT4 translocation detection with wide field fluorescence and TIRF microscopy: Both wide field and TIRF microscopy were used to detect myc-GLUT4-GFP translocation to the cell surface as previously described (Jiang et al., 2002) and herein.
To test the effect of RNAi-induced gene specific knockdown of CDP138 or overexpression of CDP138 mutants on GLUT4 translocation, siRNAs or CDP138 constructs were transfected into adipocytes together with myc-GLUT4-GFP by electroporation as previously described (Jiang et al, 2003). […] Cells were washed with cold PBS, fixed with 4% formaldehyde and immunostained. Briefly, for siRNA study, the cell surface Myc-GLUT4-GFP was visualized with mouse anti-Myc Ab (9E10) and AlexaFluoro568-labeled goat anti-mouse secondary Ab (Invitrogen) in PBS containing 1% FBS. After washing, the coverslip were mounted with Prolong antifade reagent (Invitrogen, Eugene Oreg.). Fluorescence microscopy was carried as described below. Then, images were acquired with wide field microscopy as described below. For the study with overexpressed HAtagged CDP138 constructs, the cell surface Myc-GLUT4-GFP was visualized with rabbit anti-Myc Ab (Cell signaling, Inc) and AlexaFluoro568-labeled goat anti-rabbit secondary Ab (InVitrogen) in PBS containing 1% FBS. Cells were further permeabilized with PSB containing 0.5% Tween-20, and HA-tagged protein was detected with a mouse anti-HA epitope primary Ab followed by AlexaFluoro-350-labelled goat anti-mouse IgG. Insulin-induced myc-GLUT4 accumulation (AlexaFluoro-568 signal) within the evanescence excitation field (100 nm from dorsal membrane) in transfected adipocytes was measured with a Nikon Eclipse-Ti microscope equipped with a CoolSNAP HQ2 camera and laser scanning TIRF capacity. Total GLUT4-GFP signals and […] Alexa Fluoro-350 signals were acquired with wide field imaging to identify double-transfected cells. The ratio of myc-GLUT4 signal in the TIRF zone to the total Epi-GFP signal in wide field was used as a measure of GLUT4 translocation to the cell surface.
as §1

Molecule | effect on insulin-induced GSV-PM membrane fusion (3T3-L1 adipocytes [1]) | effect on insulin-induced GSV-PM membrane fusion (3T3-L1 adipocytes [1]; listed as Akti1/2) | effect on insulin-stimulated myc-GLUT4-GFP translocation to cell surface (3T3-L1 adipocytes [2]) | effect on insulin-stimulated myc-GLUT4-GFP translocation to cell surface (3T3-L1 adipocytes [2]; listed as Akti1/2) | effect of overexpression on insulin-stimulated myc-GLUT4-GFP translocation (TIRF myc / Epi GFP) (3T3-L1 adipocytes [2]) | effect of overexpression on insulin-stimulated myc-GLUT4-GFP translocation (TIRF myc / Epi GFP) (3T3-L1 adipocytes [2]; listed as S197A)
O=c1[nH]c2ccccc2n1C1CCN(Cc2ccc(-c3nc4cc5nc[nH]c5cc4nc3-c3ccccc3)cc2)CC1 [Akti, reference compound] | significantly inhibited | blocks | significantly inhibited | blocks | – | –
B1 | – | – | – | – | inhibited | –
B2 | – | – | – | – | inhibited | blocked
